The values below come from patent US4800161A (priority 1984, dated 1989).

Experiment [1] has as its target aldose-1-epimerase (mutarotase, EC 5.1.3.3) from Acinetobacter calcoaceticus (Acinetobacter calcoaceticus, UniProt P05149). The procedure: Principle: [drawing 1] Mutarotase, glucose-dehydrogenase and NAD are caused to react with a freshly prepared solution of α-glucose, and the NADH2 is determined by measuring the extinction at 366 nm. The measurement of the acceleration of the formation of NADH2 by mutarotase (compared with a blank without mutarotase) allows the mutarotase activity in the solution used to be calculated.
As soon as the extinction is constant, the start is made with 0.10 ml of solution 4 in each case.
A fresh glucose solution is prepared for each measurement. It is absolutely necessary to adhere to the following procedure in order to allow for the existing mutarotation: a 150 ml beaker is filled with 100 ml of distilled water and the temperature is adjusted to 20° C. The beaker is evenly stirred, 30 mg of α-glucose are added, the stopwatch is started and the time is marked on the recorder chart. Mixing takes place for 30 seconds. Within the next 15 seconds, the glucose solution is pipetted into the cell, the cell content is thoroughly mixed and, after the expiration of these 15 seconds, the increase in extinction is recorded. The measurment is taken at 366 nm, layer thickness 1 cm, cell temperature 25° C.
For evaluation, a tangent is put to the linear part at the origin of the recording curve, and ΔE/minute is read off; subtraction of the blank from the analysis value gives a value of ΔΔE/minute, which is inserted into the following calculation equation:
Enzyme activity=ΔΔE/minute×4.09 U of mutarotase per ml of […]

Experiment [2] concerns the target mutarotase from bovine kidneys (Bos taurus, UniProt Q5EA79). Conditions: read-out: Michaelis constant (KM); glucose determination context.
Experiment [3] has as its system mutarotase from Aspergillus niger. The note with it: read-out: Michaelis constant (KM); Biochim. Biophys. Acta 662, 285 (1981); cited from earlier work.

Chain of aldose-1-epimerase (mutarotase, EC 5.1.3.3) from Acinetobacter calcoaceticus (P05149 21-381): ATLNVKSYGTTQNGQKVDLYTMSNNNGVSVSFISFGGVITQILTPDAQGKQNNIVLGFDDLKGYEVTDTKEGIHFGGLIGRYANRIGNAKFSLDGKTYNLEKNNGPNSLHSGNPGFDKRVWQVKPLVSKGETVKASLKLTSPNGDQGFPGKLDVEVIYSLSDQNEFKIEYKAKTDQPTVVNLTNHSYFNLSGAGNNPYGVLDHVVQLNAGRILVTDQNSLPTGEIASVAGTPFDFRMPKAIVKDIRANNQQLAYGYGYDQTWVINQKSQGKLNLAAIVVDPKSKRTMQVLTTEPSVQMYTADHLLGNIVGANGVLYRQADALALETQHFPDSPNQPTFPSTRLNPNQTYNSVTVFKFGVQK
Chain of mutarotase from bovine kidneys (Q5EA79 whole entry): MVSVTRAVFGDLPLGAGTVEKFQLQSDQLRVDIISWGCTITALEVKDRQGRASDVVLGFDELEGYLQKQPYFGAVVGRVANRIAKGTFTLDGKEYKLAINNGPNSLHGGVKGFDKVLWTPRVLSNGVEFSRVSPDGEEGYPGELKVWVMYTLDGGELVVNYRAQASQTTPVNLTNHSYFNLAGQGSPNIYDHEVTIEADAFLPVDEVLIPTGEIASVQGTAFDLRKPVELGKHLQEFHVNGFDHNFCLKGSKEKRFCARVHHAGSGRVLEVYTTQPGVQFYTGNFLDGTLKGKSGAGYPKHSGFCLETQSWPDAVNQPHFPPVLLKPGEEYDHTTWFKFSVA

For the substance galactose, in experiment [1], the “Michaelis constant for galactose compared with glucose” value is listed as “same Michaelis constant” and the “Michaelis constant for galactose relative to that of the mutarotase from bovine kidneys” value was 3 times.
As to glucose, the Km in experiment [1] (read-out: Michaelis constant (KM) for glucose, mutarotase according to the invention) was 6 to 8 mM; in experiment [2] it was 18 to 20 mM; in experiment [3] it was 50 mM.

Usually Km stands for the concentration of substrate that gives half-maximal velocity.
